{"source": "patent US8344163B2", "about": "“Nitrile compound and its use for control of arthropod pest” (Sumitomo Chemical Company, Limited, priority 2008, dated 2013)", "data": [{"system": "Blattalla germanica", "assay": "Test Example 5: filter paper with sucrose bait, Blattalla germanica male imagoes", "type": "in vivo", "settings": "500 ppm active ingredient, 0.7 ml on filter paper; 2 male imagoes; after 6 days", "protocol": "A formulation of any one of the present compounds (1t), (1c), (3), (4), (7) and (8) obtained according to Formulation Example 16 was diluted with water to prepare a test solution having 500 ppm of the active ingredient.\nA filter paper having a diameter of 5.5 cm was spread on the bottom of a polyethylene cup having a diameter of 5.5 cm and 0.7 ml of the test solution was added dropwise onto the filter paper. As a bait, 30 mg of sucrose was uniformly placed on the filter paper. Into the polyethylene cup, 2 male imagoes of Blattalla germanica were released and the cup was sealed with a lid. After 6 days, the number of surviving or dead Blattalla germanica was counted and the death rate of the pest was calculated.", "units": {"pest death rate": "%"}, "values": [{"smiles": "CON=C1CCC(CC(C#N)(C#N)CCC(F)(F)F)CC1", "note": "(stereo not drawn) [(8)]", "pest death rate": 100}, {"smiles": "C#CC12CCC(CC(C#N)(C#N)CCC(F)(F)F)CC1O2", "note": "(stereo not drawn) [(4)]", "pest death rate": 100}, {"smiles": "C#C[C@H]1CC[C@@H](CC(C#N)(C#N)CCC(F)(F)F)CC1", "note": "[(1c)]", "pest death rate": 100}, {"smiles": "C#C[C@H]1CC[C@H](CC(C#N)(C#N)CCC(F)(F)F)CC1", "note": "[(1t)]", "pest death rate": 100}, {"smiles": "C#CC1(F)CCC(CC(C#N)(C#N)CCC(F)(F)F)CC1", "note": "(stereo not drawn) [(3)]", "pest death rate": 100}, {"smiles": "C#CC1(F)CCC(CCC(C#N)(C#N)CCC(F)(F)F)CC1", "note": "(stereo not drawn) [(7)]", "pest death rate": 100}]}]}
